Experimental data: patent publication US10898498B2, “Slow release oxysterols and methods of use” (Warsaw Orthopedic, Inc., priority 2015, dated 2021)
Entries after “also recorded” stand apart in the source; their conditions may differ.

What was measured:
[1] = tested on: multipotent mesenchymal cells such as M2-10B4 (M2) marrow stromal cells and C3H10T1/2 embryonic fibroblasts; conditions: M2-10B4 marrow stromal cells and C3H10T1/2 embryonic fibroblasts; cited from earlier work
[2] = tested on: rat two-level spine model (posterolateral space, L3-L5); test: Rat two-level posterolateral spine fusion model, implants placed bilaterally; radiographs and manual palpation; type: in vivo; conditions: for bone growth / bridging bone on radiographs: 4-week and 8-week timepoints; for spinal fusion by manual palpation evaluation of the spine segments: 8 weeks; for fusion observed (share of rat spines fused, manual palpation): matrix of Oxy133, collagen and ceramic wetted with sterile water, bilateral, 8-week sacrifice, 5/5 spines
Protocol: FIG. 6 illustrates uses of a formulation of malleable implants having 20 mg of Oxy133 on each side of the implant, in accordance with the malleable implants described herein. […] A dry composition of a matrix containing Oxy133, collagen and ceramic as described herein was prepared and wetted with sterile water to be implanted in rat spines as shown in FIG. 6. The wetted matrix was cut in half with a razor blade to yield two halves. The two implants were molded into cylindrical shapes prior to insertion and were positioned bilaterally in the posterolateral space of each test subject. Each implant contained 20 mg Oxy133. Radiographs were taken roughly 10 minutes after the procedure, 4 weeks after the procedure, and 8 weeks after the procedure. […] Fusion was tested at 8-week sacrifice by manual palpation. […] A dry composition of a matrix containing Oxy133, collagen and ceramic as described herein was prepared and wetted with sterile water to be implanted in rat spines as shown in FIG. 6. The wetted matrix was cut in half with a razor blade to yield two halves. The two implants were molded into cylindrical shapes prior to insertion and were positioned bilaterally in the posterolateral space of each test subject. Each implant contained 125 mg Oxy133. Radiographs were taken roughly 10 minutes after the procedure, 4 weeks after the procedure, and 8 weeks after the procedure. […] Fusion was tested at 8-week sacrifice by manual palpation.

SMILES: CC(C)CCC[C@](C)(O)[C@H]1CC[C@H]2[C@@H]3CC=C4C[C@@H](O)CC[C@]4(C)[C@H]3CC[C@@]21C [20(S)-hydroxycholesterol]
- osteogenic differentiation [1]: induce osteogenic differentiation

SMILES: CC(C)CC[C@@H](O)[C@@H](C)[C@H]1CC[C@H]2[C@@H]3CC=C4C[C@@H](O)CC[C@]4(C)[C@H]3CC[C@]12C [22(R)-hydroxycholesterol]
- osteogenic differentiation [1]: induce osteogenic differentiation

SMILES: CC(C)CC[C@H](O)[C@@H](C)[C@H]1CC[C@H]2[C@@H]3CC=C4C[C@@H](O)CC[C@]4(C)[C@H]3CC[C@]12C [22(S)-hydroxycholesterol]
- osteogenic differentiation [1]: induce osteogenic differentiation

SMILES: CCCCCC[C@](C)(O)[C@H]1CC[C@H]2[C@@H]3C[C@H](O)[C@H]4C[C@@H](O)CC[C@]4(C)[C@H]3CC[C@@]21C [Oxy133, (3S,5S,6S,8R,9S,10R,13S,14S,17S)-17-((S)-2-hydroxyoctan-2-yl)-10,13-dimethylhexadecahydro-1H-cyclopenta[a]phenanthrene-3,6-diol]
- bone growth / bridging bone on radiographs ([2]; each implant 20 mg Oxy133): Bone growth in rat test subjects can be seen; also recorded: promoted bridging bone across the transverse processes of L3-L5
- spinal fusion by manual palpation evaluation of the spine segments ([2]; each implant 20 mg Oxy133): yielded spinal fusion; also recorded: limited flexibility
- bone growth / bridging bone on radiographs ([2]; each implant 125 mg Oxy133): Bone growth in rat test subjects can be seen; also recorded: promoted bridging bone across the transverse processes of L3-L5
- spinal fusion by manual palpation evaluation of the spine segments ([2]; each implant 125 mg Oxy133): yielded spinal fusion; also recorded: limited flexibility
- fusion observed (share of rat spines fused, manual palpation) ([2]; each implant 20 mg Oxy133): 100%
- fusion observed (share of rat spines fused, manual palpation) ([2]; each implant 125 mg Oxy133): 100%
